Earlier results, collected in US20060233843A1, “Treatment of psychosis with a muscarinic m1 receptor ectopic activator” (priority 2003, published 2006).

Molecular target: T1, M1 receptor, residue 381 mutated from tyrosine to alanine (Homo sapiens, UniProt P11229, Y381A)
T1 sequence (P11229 1-460 Y381A): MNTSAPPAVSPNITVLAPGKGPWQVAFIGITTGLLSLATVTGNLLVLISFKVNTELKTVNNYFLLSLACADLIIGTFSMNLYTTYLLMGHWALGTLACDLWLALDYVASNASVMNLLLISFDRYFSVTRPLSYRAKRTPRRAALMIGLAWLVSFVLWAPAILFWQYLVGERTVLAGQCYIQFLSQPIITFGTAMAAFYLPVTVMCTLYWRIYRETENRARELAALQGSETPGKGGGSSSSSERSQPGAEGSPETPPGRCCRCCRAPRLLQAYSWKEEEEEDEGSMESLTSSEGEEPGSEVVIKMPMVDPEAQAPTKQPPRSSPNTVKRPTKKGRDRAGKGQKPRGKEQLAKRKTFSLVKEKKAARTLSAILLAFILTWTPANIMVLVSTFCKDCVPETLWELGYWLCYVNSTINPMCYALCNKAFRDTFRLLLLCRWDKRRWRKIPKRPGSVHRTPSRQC
Conditions: M1 receptor Y381A mutant versus wild type

| effect of mutation of residue 381 from tyrosine to alanine on pharmacology | increase of ectopic agonist potency by mutation of residue 381 from tyrosine to alanine [fold] | Structure (SMILES) |
| --- | --- | --- |
| not affecting | – | CCCCC1CCN(CCCC(=O)c2ccccc2C)CC1 [AC-42] |
| – | 8 | Clc1ccc2c(c1)N=C(N1CCNCC1)c1ccccc1N2 [N-desmethylclozapine, Desmethylclozapine] |
